What was measured:
[1] = Inhibition of NS5A A30K mutant in HCV genotype 3a infected in human HuH7 replicon cells assessed as reduction in viral replication after 3 days by luciferase reporter gene assay
[2] = Inhibition of NS5A in HCV genotype 5a SA13 infected in human HuH7 replicon cells assessed as reduction in viral replication after 3 days by luciferase reporter gene assay
[3] = Inhibition of NS5A in wild type HCV genotype 1b infected in human HuH7 replicon cells assessed as reduction in viral replication after 3 days by luciferase reporter gene assay
[4] = Inhibition of NS5A Y93H mutant in HCV genotype 3a infected in human HuH7 replicon cells assessed as reduction in viral replication after 3 days by luciferase reporter gene assay
[5] = Inhibition of NS5A Q30R mutant in HCV genotype 1a infected in human HuH7 replicon cells assessed as reduction in viral replication after 3 days by luciferase reporter gene assay
[6] = Inhibition of NS5A Y93H mutant in HCV genotype 1b infected in human HuH7 replicon cells assessed as reduction in viral replication after 3 days by luciferase reporter gene assay
[7] = Inhibition of NS5A in HCV genotype 2a J6 infected in human HuH7 replicon cells assessed as reduction in viral replication after 3 days by luciferase reporter gene assay
[8] = Inhibition of NS5A M28T mutant in HCV genotype 1a infected in human HuH7 replicon cells assessed as reduction in viral replication after 3 days by luciferase reporter gene assay
[9] = Inhibition of NS5A in HCV genotype 3a S52 infected in human HuH7 replicon cells assessed as reduction in viral replication after 3 days by luciferase reporter gene assay
[10] = Inhibition of NS5A K44R mutant in HCV genotype 2a infected in human HuH7 replicon cells assessed as reduction in viral replication after 3 days by luciferase reporter gene assay
[11] = Inhibition of NS5A in wild type HCV genotype 3a infected in human HuH7 replicon cells assessed as reduction in viral replication after 3 days by luciferase reporter gene assay
[12] = Inhibition of NS5A in HCV genotype 2a JFH1 infected in human HuH7 replicon cells assessed as reduction in viral replication after 3 days by luciferase reporter gene assay
[13] = Inhibition of NS5A in wild type HCV genotype 2b MD2b-1 infected in human HuH7 replicon cells assessed as reduction in viral replication after 3 days by luciferase reporter gene assay
[14] = Inhibition of NS5A in HCV genotype 2b MD2b-1 infected in human HuH7 replicon cells assessed as reduction in viral replication after 3 days by luciferase reporter gene assay
[15] = Inhibition of NS5A in HCV genotype 6e D88 infected in human HuH7 replicon cells assessed as reduction in viral replication after 3 days by luciferase reporter gene assay
[16] = Inhibition of NS5A Q30H mutant in HCV genotype 1a infected in human HuH7 replicon cells assessed as reduction in viral replication after 3 days by luciferase reporter gene assay
[17] = Inhibition of NS5A N62S mutant in HCV genotype 2a infected in human HuH7 replicon cells assessed as reduction in viral replication after 3 days by luciferase reporter gene assay
[18] = Inhibition of NS5A in HCV genotype 4a ED43 infected in human HuH7 replicon cells assessed as reduction in viral replication after 3 days by luciferase reporter gene assay
[19] = Inhibition of NS5A in HCV genotype 6a HK6 infected in human HuH7 replicon cells assessed as reduction in viral replication after 3 days by luciferase reporter gene assay
[20] = Inhibition of NS5A Q30E mutant in HCV genotype 1a infected in human HuH7 replicon cells assessed as reduction in viral replication after 3 days by luciferase reporter gene assay
[21] = Inhibition of NS5A in wild type HCV genotype 2b AY232738 infected in human HuH7 replicon cells assessed as reduction in viral replication after 3 days by luciferase reporter gene assay
[22] = Inhibition of NS5A P58S mutant in HCV genotype 2b infected in human HuH7 replicon cells assessed as reduction in viral replication after 3 days by luciferase reporter gene assay
[23] = Inhibition of NS5A Y93C mutant in HCV genotype 1a infected in human HuH7 replicon cells assessed as reduction in viral replication after 3 days by luciferase reporter gene assay
[24] = Inhibition of NS5A R44K mutant in HCV genotype 2b infected in human HuH7 replicon cells assessed as reduction in viral replication after 3 days by luciferase reporter gene assay
[25] = Inhibition of NS5A in wild type HCV genotype 1a infected in human HuH7 replicon cells assessed as reduction in viral replication after 3 days by luciferase reporter gene assay
[26] = Inhibition of NS5A in HCV genotype 1b Con1 infected in human HuH7 replicon cells assessed as reduction in viral replication after 3 days by luciferase reporter gene assay
[27] = Inhibition of NS5A L31M mutant in HCV genotype 1a infected in human HuH7 replicon cells assessed as reduction in viral replication after 3 days by luciferase reporter gene assay
[28] = Inhibition of NS5A Y93H mutant in HCV genotype 1a infected in human HuH7 replicon cells assessed as reduction in viral replication after 3 days by luciferase reporter gene assay
[29] = Inhibition of NS5A N62V mutant in HCV genotype 2a infected in human HuH7 replicon cells assessed as reduction in viral replication after 3 days by luciferase reporter gene assay
[30] = Inhibition of NS5A in HCV wild type genotype 2a infected in human HuH7 replicon cells assessed as reduction in viral replication after 3 days by luciferase reporter gene assay
[31] = Inhibition of NS5A in HCV genotype 1a H77 infected in human HuH7 replicon cells assessed as reduction in viral replication after 3 days by luciferase reporter gene assay
[32] = Inhibition of NS5A L31M mutant in HCV genotype 2a J6 (M31) infected in human HuH7 replicon cells assessed as reduction in viral replication after 3 days by luciferase reporter gene assay

| Compound | EC50 [1] [nM] | EC50 [2] [nM] | EC50 [3] [nM] | EC50 [4] [nM] | EC50 [5] [nM] | EC50 [6] [nM] | EC50 [7] [nM] | EC50 [8] [nM] | EC50 [9] [nM] | EC50 [10] [nM] | EC50 [11] [nM] | EC50 [12] [nM] | EC50 [13] [nM] | EC50 [14] [nM] | EC50 [15] [nM] | EC50 [16] [nM] | EC50 [17] [nM] | EC50 [18] [nM] | EC50 [19] [nM] | EC50 [20] [nM] | also measured |
| --- | --- | --- | --- | --- | --- | --- | --- | --- | --- | --- | --- | --- | --- | --- | --- | --- | --- | --- | --- | --- | --- |
| COC(=O)N[C@H](C(=O)N1CC2(CC2)C[C@H]1c1nc(-c2ccc3c(c2)C(F)(F)c2cc(-c4ccc5[nH]c([C@@H]6[C@H]7CC[C@H](C7)N6C(=O)[C@@H](NC(=O)OC)C(C)C)nc5c4)ccc2-3)c[nH]1)C(C)C [CHEBI:85089] | > 89 | 0.15 | 0.004 | > 89 | 20 | 7.2 | 249 | 1.9 | 168 | 164 | > 45 | 21 | 865 | 530 | 264 | 5.7 | 123 | 0.39 | 1.1 | 169 | EC50 [21]: 211 nM; EC50 [22]: 292 nM; EC50 [23]: 50 nM; EC50 [24]: 943 nM; EC50 [25]: 0.031 nM; EC50 [26]: 0.004 nM; EC50 [27]: 17 nM; EC50 [28]: 52 nM; EC50 [29]: 222 nM; EC50 [30]: 209 nM; EC50 [31]: 0.031 nM |
| COC[C@H]1C[C@@H](c2nc(-c3ccc4c(c3)COc3cc5c(ccc6nc([C@@H]7CC[C@H](C)N7C(=O)[C@@H](NC(=O)OC)C(C)C)[nH]c65)cc3-4)c[nH]2)N(C(=O)[C@H](NC(=O)OC)c2ccccc2)C1 [GS-5816] | 0.21 | 0.054 | 0.016 | 3.2 | 0.031 | 0.011 | 0.016 | 0.105 | 0.004 | 0.005 | 0.013 | 0.008 | 0.004 | 0.006 | 0.13 | 0.032 | 0.003 | 0.009 | 0.006 | 0.25 | EC50 [32]: 0.016 nM; EC50 [21]: 0.007 nM; EC50 [22]: 0.01 nM; EC50 [23]: 0.053 nM; EC50 [24]: 0.011 nM; EC50 [25]: 0.014 nM; EC50 [26]: 0.016 nM; EC50 [27]: 0.22 nM; EC50 [28]: 8.5 nM; EC50 [29]: 0.01 nM; EC50 [30]: 0.009 nM; EC50 [31]: 0.014 nM |

From BindingDB's records for doi:10.1016/j.bmcl.2019.04.027 (Gilead Sciences, 2019)
